The test system of assay [1] is breast cancer exhibiting a positive ER status. Conditions: patients with breast cancer of positive ER status; cited from earlier work.
Assay [2] relates to MCF-7 breast cancer cells. Briefly: Stable transfection of MCF-7 cells, colony formation / cell count after 2 weeks of selection. Format: cell-based, human. To be noted: MCF-7 cells transfected with pcDNA3.1 HA-tagged mPR plasmid, 2 weeks hygromycin B selection. How it is done: Colonies were grown from all transfected cell lines. […] This anti-proliferative effect of both of these mutants was not observed using transiently transfected cells used for immunohistochemistry in cytospins because these were assayed shortly after transfection.
Therefore, treatments that would promote the formation of the hypophosphorylated dimeric form in tumors would be highly desirable. […] Therefore the interaction of an SH3-domain-containing protein that interacts with the SH3-domain target sequence that contains serine 56 is necessary to manifest the antiproliferative phenotype associated with non-phosphorylated serine 180. The interaction of this unknown protein is inhibited by phosphorylation of serine 56, thereby preventing the antiproliferative phenotype and enhancing proliferative ability. Conversely, when an SH2-domain-containing protein can bind to the phosphorylated tyrosine 179 adjacent to non-phosphorylated serine 180 then the antiproliferative effect is antagonized, and cells can proliferate. […]
MCF-7 cells stably transfected with mPR and mutants, respectively, were established. […] To that aim colonies were trypsinized, counted and diluted in two-fold dilutions.

Another assay concerns the target T1, DCC (Homo sapiens, UniProt P43146).
T1 construct: endogenous in cells; host or cells: MCF7 human breast cancer cells, transfected only with mPR-3HA expression plasmids
Briefly: Immune precipitation of DCC with HA-tagged mPR, Western blot with anti-DCC AF5. Format: binding. Conditions: MCF7 cells, 24 hours after transfection, anti-HA immunoprecipitation. How it is done:
Therefore it is most reasonable to assume that mPR will be detectable in a complex with DCC. […] Aliquots of 2×10^6 MCF7 cells were transfected as described below with each of the mPR expression vectors.
After 24 hours the mPR-3HA proteins were affinity purified with an anti-HA anti-body described above. The AF5 anti DCC human monoclonal antibody (Merck Biosciences OP45 Anti-DCC Mouse mAb AF5) was used to detect the presence of DCC by Western Blot. Normalized amounts of the precleared incubation reaction, the final supernatant after removal of the immuno-precipitate, and of the immuno-precipitated pellet were loaded to SDS-PAGE gels, blotted to membranes, and Western Blotted with the AF5 anti-DCC antibody. […] The size of the band was slightly higher than the predicted 158 kDa for DCC, possibly due to post-translational modification of the protein. An approximately 100 kDa band also reacted with the anti-DCC monoclonal antibody in Western Blot, which may represent a proteolytic fragment of DCC. […] We are not naively claiming a phosphorylated form of mPR interacts with DCC, which is not shown by our data. […]
MCF-7 breast cancer cells were transfected by Lipofection with 5 μg of pcDNA3.1 containing HA-tagged mPR-wt, tagged mutant S56A, S180A, S56A/S180A, or tagged mutant S56A/C128S/[…]. […] For IP the cells were trypsinized, counted and cell pellets were snap frozen and stored at −80° C. […]

T1 sequence (P43146 26-1447): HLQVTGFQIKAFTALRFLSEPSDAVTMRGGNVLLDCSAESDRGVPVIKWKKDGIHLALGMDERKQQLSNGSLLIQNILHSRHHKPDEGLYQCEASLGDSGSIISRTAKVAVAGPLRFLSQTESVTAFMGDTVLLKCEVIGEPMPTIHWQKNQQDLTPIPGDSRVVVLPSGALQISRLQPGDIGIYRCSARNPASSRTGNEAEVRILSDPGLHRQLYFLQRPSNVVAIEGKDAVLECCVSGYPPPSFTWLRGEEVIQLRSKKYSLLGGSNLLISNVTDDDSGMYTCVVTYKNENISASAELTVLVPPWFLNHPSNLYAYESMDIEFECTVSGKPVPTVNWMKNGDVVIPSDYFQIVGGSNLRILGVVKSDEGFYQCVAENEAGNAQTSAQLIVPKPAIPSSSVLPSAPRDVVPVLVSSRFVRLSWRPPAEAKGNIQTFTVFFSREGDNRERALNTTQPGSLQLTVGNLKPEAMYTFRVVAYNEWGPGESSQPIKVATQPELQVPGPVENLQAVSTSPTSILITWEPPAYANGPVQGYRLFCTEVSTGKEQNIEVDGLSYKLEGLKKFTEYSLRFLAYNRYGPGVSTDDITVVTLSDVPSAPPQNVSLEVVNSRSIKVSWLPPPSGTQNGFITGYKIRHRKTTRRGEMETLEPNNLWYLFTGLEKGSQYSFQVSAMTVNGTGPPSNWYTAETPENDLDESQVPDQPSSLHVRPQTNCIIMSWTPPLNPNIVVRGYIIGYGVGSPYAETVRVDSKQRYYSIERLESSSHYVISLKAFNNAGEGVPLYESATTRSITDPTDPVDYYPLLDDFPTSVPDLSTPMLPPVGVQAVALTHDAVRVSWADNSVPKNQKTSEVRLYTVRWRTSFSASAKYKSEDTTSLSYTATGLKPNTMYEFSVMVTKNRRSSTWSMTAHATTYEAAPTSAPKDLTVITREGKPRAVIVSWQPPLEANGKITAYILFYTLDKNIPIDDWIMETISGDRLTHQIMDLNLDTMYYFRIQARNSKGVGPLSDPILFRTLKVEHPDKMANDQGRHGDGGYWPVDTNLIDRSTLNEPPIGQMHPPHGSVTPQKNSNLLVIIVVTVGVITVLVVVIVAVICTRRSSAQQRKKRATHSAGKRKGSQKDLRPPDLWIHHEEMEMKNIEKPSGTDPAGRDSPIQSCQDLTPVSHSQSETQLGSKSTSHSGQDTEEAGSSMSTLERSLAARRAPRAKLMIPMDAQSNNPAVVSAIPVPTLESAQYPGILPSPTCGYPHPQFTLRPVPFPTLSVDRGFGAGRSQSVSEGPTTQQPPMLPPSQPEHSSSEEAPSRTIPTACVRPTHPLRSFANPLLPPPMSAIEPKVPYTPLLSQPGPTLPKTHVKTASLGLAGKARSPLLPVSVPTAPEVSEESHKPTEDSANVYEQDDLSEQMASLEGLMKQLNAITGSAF

For the compound `CC/C(=C(\c1ccccc1)c1ccc(OCCN(C)C)cc1)c1ccccc1` [tamoxifen], the “fraction of cases in which effective” value in assay [1] is on record as “approximately 50%”.

In the case of “S56A/C128S/S180A: HA-tagged mPR triple mutant: serine 56 and 180 to alanine, cysteine 128 to serine”, the “number of colonies / ability to proliferate” value in assay [2] is “able to proliferate”.

Regarding “S56A/S180A: HA-tagged mPR (PGRMC1) with serine 56 and serine 180 mutated to alanine, expressed from plasmid pcDNA3.1”, the “number of colonies / ability to proliferate” value in assay [2] is recorded as “drastically reduced to effectively background levels”.

Regarding “wild-type mPR: HA-tagged wild-type membrane associated progesterone receptor component 1 expressed from pcDNA3_MPR-3HA”, the “DCC band in immune precipitation pellet” value with DCC is recorded as “A high molecular weight DCC band was observed”.

(Values after patent US20090061461A1, “Phosphorylated or Non-Phosphorylated MPR as Diagnostic Marker or Therapeutic Target” (priority 2005, published 2009).)
